The values that follow are results of earlier work, collected in patent publication US10238626B2, “Therapeutic compounds” (ARIZONA BOARD OF REGENTS ON BEHALF OF ARIZONA STATE …, priority 2017, dated 2019).

One series has as its target hRXRβ (Homo sapiens, UniProt P28702). The conditions noted are these: read-out: EC50 for the hRXRβ isoform; literature (Santin et al. 2009).
For series [1], the system named is hRXR. The conditions noted are these: Caco-2 cells; literature (Wagner et al. 2009).
The target of series [2] is hRXR. Particulars: Caco-2 cells; literature (Wagner et al. 2009). This is another data set of the same source.

Chain of hRXRβ (P28702 whole entry, canonical isoform): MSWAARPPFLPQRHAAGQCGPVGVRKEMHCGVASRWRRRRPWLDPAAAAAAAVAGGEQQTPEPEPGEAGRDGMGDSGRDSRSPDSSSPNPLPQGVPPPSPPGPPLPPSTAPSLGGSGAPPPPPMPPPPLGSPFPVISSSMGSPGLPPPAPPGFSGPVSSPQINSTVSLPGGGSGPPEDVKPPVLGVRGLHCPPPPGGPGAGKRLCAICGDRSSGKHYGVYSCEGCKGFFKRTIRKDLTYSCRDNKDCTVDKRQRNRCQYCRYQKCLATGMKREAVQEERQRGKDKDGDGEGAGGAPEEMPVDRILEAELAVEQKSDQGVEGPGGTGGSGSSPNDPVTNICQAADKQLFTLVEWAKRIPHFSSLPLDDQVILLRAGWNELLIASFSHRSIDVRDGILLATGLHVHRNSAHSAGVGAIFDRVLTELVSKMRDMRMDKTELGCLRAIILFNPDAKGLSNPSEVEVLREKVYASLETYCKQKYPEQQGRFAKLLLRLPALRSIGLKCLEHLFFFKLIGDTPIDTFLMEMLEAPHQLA

With `Cc1cc2c(cc1-c1cc(/C=C/C(=O)O)ccc1O)C(C)(C)CCC2(C)C` [CD3254], the half-maximal effective concentration (EC50) on hRXRβ is roughly 10 nM. As for `C=C(c1ccc(C(=O)O)c(F)c1)c1cc2c(cc1C)C(C)(C)CCC2(C)C` [compound 3], the EC50 in the series on hRXR [1] is 43 nM. In addition, the Kd at hRXR [2] was 12 nM.

One may read the EC50 as the concentration giving half of the maximal effect. In general, Kd refers to a measure of binding affinity in units of concentration.
